Results reported in patent publication US11673877B2 (priority 2017, dated 2023).
Values after ≈ are worked out from the molar mass of the structure shown. Like-named read-outs stand apart in the source and are kept apart here.

How the values were obtained:
[1] = for water activity at which the form is the preferred form: slurry in water/DMSO mixtures, 2 days
Protocol: Powder samples were prepared in a low background Si holder using light manual pressure to keep the sample surfaces flat and level with the reference surface of the sample holder. Each sample was analyzed from 2 to 40° 2θ using a continuous scan of 6° 2θ per minute with an effective step size of 0.02° 2θ. Unless otherwise noted, XPRD studies were performed at room temperature and room humidity.
Slurry experiments designed to provide a range of water activities were carried out in solvent mixtures containing water and dimethylsulfoxide (Table 1). […] The samples were analyzed while wet to avoid changes, such as the hydrate converting to the anhydrate, from drying.

[2] = for hygroscopicity from DVS curve: 5 to 95% RH; for solid form by XRPD after the DVS experiment: after adsorption/desorption cycle 5-95-5% RH
Protocol: DVS analyses were carried out TA Instruments Q5000 Dynamic Vapor Sorption analyzer. The instrument was calibrated with standard weights and a sodium bromide standard for humidity. Samples were analyzed at 25° C. with a maximum equilibration time of 60 minutes in 10% relative humidity (RH) steps from 5 to 95% RH (adsorption cycle) and from 95 to 5% RH (desorption cycle).
After the experiment the samples were analyzed by XRPD.

[3] = test system: cancer cells with mutant BRCA-1 and BRCA-2; conditions: read-out: inhibition of proliferation CC50; cited from earlier work
physchem = conditions: aqueous solution, aqueous buffer
PARP = conditions: read-out: inhibition of PARP activity EC50; whole cell assay; cited from earlier work
[4] = solid form, no method given

NC(=O)c1cccc2cn(-c3ccc([C@@H]4CCCNC4)cc3)nc12 [Form III, 2-{4-[(3S)-piperidin-3-yl]phenyl}-2H-indazole-7-carboxamide]
water activity at which the form is the preferred form [1]: ≤ 0.11
hygroscopicity from DVS curve ([2]; 25° C.): very hygroscopic
solid form by XRPD after the DVS experiment [2]: converted to the monohydrate
DVS weight gain ([2]; up to 95% RH, 25° C.): approximately 15.8%

NC(=O)c1cccc2cn(-c3ccc([C@@H]4CCCNC4)cc3)nc12 [Niraparib, 2-{4-[(3S)-piperidin-3-yl]phenyl}-2H-indazole-7-carboxamide]
CC50 [3]: 10 to 100 nM
solubility (physchem): 0.7 to 1.1 mg/mL (≈ 2180 to 3430 µM)

Cc1ccc(S(=O)(=O)O)cc1.NC(=O)c1cccc2cn(-c3ccc([C@@H]4CCCNC4)cc3)nc12 [niraparib tosylate, 2-{4-[(3S)-piperidin-3-yl]phenyl}-2H-indazole-7-carboxamide tosylate]
XRPD Result ([1]; 0 % water in DMSO, water activity 0, 2 days): anhydrate
XRPD Result ([1]; 17.2 % water in DMSO, water activity 0.22, 2 days): hydrate
XRPD Result ([1]; 27.6 % water in DMSO, water activity 0.38, 2 days): hydrate
XRPD Result ([1]; 43.3 % water in DMSO, water activity 0.60, 2 days): hydrate
XRPD Result ([1]; 82.8 % water in DMSO, water activity 0.84, 2 days): hydrate
XRPD Result ([1]; 100.0 % water, water activity 1.00, 2 days): hydrate

NC(=O)c1cccc2cn(-c3ccc([C@@H]4CCCNC4)cc3)nc12 [2-{4-[(3S)-piperidin-3-yl]phenyl}-2H-indazole-7-carboxamide, reference compound]
hygroscopicity [4]: highly hygroscopic

Cc1ccc(S(=O)(=O)O)cc1.NC(=O)c1cccc2cn(-c3ccc([C@@H]4CCCNC4)cc3)nc12 [Niraparib tosylate monohydrate, 2-{4-[(3S)-piperidin-3-yl]phenyl}-2H-indazole 7-carboxamide 4-methylbenzenesulfonate hydrate (1:1.1)]
water activity at which the form is the preferred form [1]: ≥ 0.22
hygroscopicity from DVS curve ([2]; 25° C.): not hygroscopic
solid form by XRPD after the DVS experiment [2]: remained unchanged
hygroscopicity [4]: non-hygroscopic
